Legend:
Type in all cases: in vivo
[1] = system: corn (Zea mays); test: Test A1 preemergence, corn
Summary of the method: (§1)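 Test compounds were formulated in a non-phytotoxic solvent mixture containing a surfactant. For preemergence, seeds sown in a loam soil–sand blend received a directed soil spray. For postemergence, potted plants in the same soil, 2 to 10 cm tall at the one- to two-leaf stage, were sprayed.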

[2] = system: Foxtail, Giant (giant foxtail, Setaria faberi); test: Test A1 preemergence, Foxtail, Giant
Summary of the method: as §1

[3] = system: Pigweed, Palmer (palmer amaranth, palmer pigweed, Amaranthus palmeri); test: Test A1 preemergence, Pigweed, Palmer
Summary of the method: as §1

[4] = system: Ryegrass, Italian (Italian ryegrass, Lolium multiflorum); test: Test A1 preemergence, Ryegrass, Italian
Summary of the method: as §1

[5] = system: soybean (Glycine max); test: Test A1 preemergence, soybean
Summary of the method: as §1

[6] = system: blackgrass (Alopecurus myosuroides); test: Test A1 postemergence, blackgrass; conditions: Postemergence, 0 to 100 scale (0 no effect, 100 complete control)
Summary of the method: as §1

[7] = system: Foxtail, Giant (giant foxtail, Setaria faberi); test: Test A1 postemergence, Foxtail, Giant; conditions: Postemergence
Summary of the method: as §1

[8] = system: wheat (Triticum aestivum); test: Test A1 postemergence, wheat; conditions: Postemergence
Summary of the method: as §1

[9] = system: horseweed (Erigeron canadensis); test: Test A1 postemergence, horseweed; conditions: Postemergence
Summary of the method: as §1

[10] = system: barnyardgrass (Echinochloa crus-galli); test: Test B1 flooded paddy test, barnyardgrass; conditions: 250 g ai/ha, Flood, applied to paddy water, 2-leaf stage, visually evaluated after 10 to 14 days
Excerpt: (§2) A dash (-) response means no test result.

[11] = system: rice (Oryza sativa); test: Test B1 flooded paddy test, rice; conditions: 250 g ai/ha, Flood, applied to paddy water, 2-leaf stage, visually evaluated after 10 to 14 days
Excerpt: as §2

[12] = 31 g ai/ha, 0 to 100 scale (0 no effect, 100 complete control)
[13] = 125 g ai/ha, 0 to 100 scale, 0 no effect, 100 complete control
[14] = 31 g ai/ha, 0 to 100 scale (0 no effect, 100 complete control), 10 days

Row | SMILES | Plant response rating, Corn [1, 12] | Plant response rating, Corn [1, 13] | Plant response rating, Foxtail, Giant [2, 12] | Plant response rating, Foxtail, Giant [2, 13] | Plant response rating, Pigweed, Palmer [3, 12] | Plant response rating, Pigweed, Palmer [3, 13] | Plant response rating, Ryegrass, Italian [4, 12] | Plant response rating, Ryegrass, Italian [4, 13] | Plant response rating, Soybean [5, 12] | Plant response rating, Soybean [5, 13] | Plant response rating, Blackgrass ([6]; 31 g ai/ha, 10 days) | Plant response rating, Blackgrass ([6]; 125 g ai/ha) | Plant response rating, Foxtail, Giant [7, 14] | Plant response rating, Foxtail, Giant ([7]; 125 g ai/ha, 0 to 100 scale) | Plant response rating, Wheat [8, 14] | Plant response rating, Wheat ([8]; 125 g ai/ha, 0 to 100 scale) | Plant response rating, Horseweed [9, 14] | Plant response rating, Horseweed ([9]; 125 g ai/ha, 0 to 100 scale) | Plant response rating, Barnyardgrass (0 to 100 scale, 0 is no effect, 100 is complete control) [10] | Plant response rating, Rice (0 to 100 scale, 0 is no effect, 100 is complete control) [11]
1 | Cc1c(C(=O)N2CCCCC2)cc(NS(=O)(=O)C(F)(F)F)c(Cl)c1F [Compound 333] | 0 | 0 | 30 | 100 | 90 | 100 | 30 | 50 | 40 | 60 | 0 | 30 | 10 | 30 | 0 | 30 | 0 | 30 | 0 | 0
2 | COC1CCCN(C(=O)c2cc(NS(=O)(=O)C(F)(F)F)c(Cl)c(F)c2C)C1 (stereo not shown) [Compound 334] | 0 | 0 | 40 | 70 | 20 | 70 | 30 | 50 | 0 | 30 | 0 | 0 | 0 | 0 | 0 | 0 | 0 | 30 | 15 | 10
3 | CCOC1CC(c2cc(N(COC(=O)C(C)(C)C)S(=O)(=O)C(F)(F)F)c(C)cc2C)=NO1 (stereo not shown) [Compound 339] | 0 | 0 | 0 | 20 | 30 | 100 | 30 | 50 | 0 | 0 | 0 | 30 | 0 | 50 | 0 | 40 | 100 | 100 | 95 | 20
4 | Cc1cc(C)c(C2=NOC3OCCC23)cc1NS(=O)(=O)C(F)(F)F (stereo not shown) [Compound 349] | 20 | 100 | 90 | 100 | 100 | 100 | 70 | 80 | 20 | 60 | 40 | 70 | 30 | 90 | 30 | 70 | 90 | 100 | 90 | 45
5 | CCOC(=O)N(c1cc(C(=O)N2CCC(F)(F)CC2)c(C)cc1C)S(=O)(=O)C(F)(F)F [Compound 351] | 0 | 0 | 30 | 100 | 80 | 90 | 40 | 90 | 20 | 30 | 0 | 80 | 30 | 50 | 0 | 60 | 100 | 90 | 90 | 50
6 | Cc1cc(C)c(N(COC(=O)C(C)(C)C)S(=O)(=O)C(F)(F)F)cc1C1=NOC2OCCC12 (stereo not shown) [Compound 352] | 10 | 50 | 30 | 100 | 70 | 100 | 20 | 100 | 30 | 40 | 0 | 20 | 20 | 70 | 0 | 50 | 80 | 100 | 90 | 35
7 | Cc1cc(C)c(N(COC(=O)C(C)(C)C)S(=O)(=O)C(F)(F)F)cc1C(=O)N1CCC(C)CC1 [Compound 353] | 10 | 30 | 10 | 80 | 30 | 40 | 0 | 0 | 10 | 30 | 0 | 0 | 20 | 50 | 20 | 50 | 70 | 100 | 90 | 20
8 | CCOC(=O)N(c1cc(C(=O)N2CCC(C)CC2)c(C)cc1C)S(=O)(=O)C(F)(F)F [Compound 354] | 0 | 0 | 80 | 100 | 10 | 50 | 20 | 70 | 30 | 70 | 0 | 0 | 0 | 70 | 20 | 40 | 80 | 90 | 90 | 15

From US20230278972A1, “SUBSTITUTED HALOALKYL SULFONANILIDE HERBICIDES” (FMC Corporation, priority 2020, published 2023)
